These results are taken from patent US20050187196A1, “Treatment of attention disorders” (Saegis Pharmaceuticals, Inc., priority 2004, published 2005).

For assay [1], the system named is striatal dopamine release. As to conditions: administration in the substantia nigra pars reticulata (SNr); cited from earlier work.
Assay [2] deals with patients diagnosed with adult ADHD. As to conditions: cited from earlier work.
In the next assay the test system is coloboma mice (Cm/+). As to conditions: open field test; d-amphetamine at low doses; cited from earlier work.
For a further assay, the system named is wildtype mice. As to conditions: d-amphetamine at the same dose as in coloboma mice; cited from earlier work.
Assay [3] deals with dopamine (DA) neurons in the ventral tegmental area (VTA). The settings on record: systemic administration; cited from earlier work.
Assay [4] concerns wildtype mice (C3H/HeSNJ). The experiment in a line: Open field test, wildtype mice. Format: in vivo, mouse. As to conditions: for locomotor activity of wildtype controls: final 30 min. The text has this:
(§1) Male and female mice heterozygous for the coloboma spontaneous mutation (C3H/HeSnJ-Cm/J) and wild type (C3H/HeSNJ) mice from Jackson Laboratories (Bar Harbor, Me.) were used in this study. Upon receipt, mice were assigned unique identification numbers (tail marked) and were housed in polycarbonate cages with filter tops. All mice were acclimated to the colony room for at least two weeks prior to testing. During the period of acclimation, mice were examined on a regular basis, handled, and weighed to assure adequate health and suitability. Mice were maintained on a 12/12 light/dark cycle. Chow and water were provided ad libitum for the duration of the study. In each test, animals were randomly assigned across treatment groups and balanced by age and by gender. Animals were not disturbed between test days.
(§2) The open field test (OF) is used to assess both anxiety-like behavior and motor activity. The open field chambers are Plexiglas square chambers (27.3×27.3×20.3 cm; Med Associates Inc., St Albans, Vt.) surrounded by infrared photobeam sources (16×16×16). The enclosure was configured to split the open field into a center and periphery zone and the photocell beams were set to measure activity in the center and in the periphery of the OF chambers. Animals having higher levels of anxiety or lower levels of activity tend to stay in the corners of the OF enclosures. On the other hand, mice that have high levels of activity and low levels of anxiety tend to spend more time in the center of the enclosure. Distance traveled is measured from consecutive beam breaks. Measures of peripheral or central distance covered during locomotion were used as an index of activity.
ABPA (0.3, 3 and 30 mg/kg) and atomoxetine (0.1 mg/kg) were dissolved in saline and administered i.p. at the injection volume of 10 ml/kg. Mice were pretreated with saline, ABPA, or atomoxetine for 30 min, after which their behavior was recorded in the OF chambers for a 60-min test session. At the end of each open field test session the OF chambers were thoroughly cleaned with Clorox wipes. Mice were returned to their home cage after testing and then to the colony room. Mice were retested every week. […] Data were analyzed by analysis of variance (ANOVA), followed by Fisher PLSD post-hoc analysis when appropriate. […]
Since the effects of all drugs reached a stable response by 20-30 min following the start of the experiment, the data was analyzed in 2 time periods: 1) total 60 min test session and 2) the last 30 min of the test session. The quantified data over the final 30 min time period are presented. […] As measured by total distance traveled, the coloboma mice had roughly 6- to 10-fold higher saline-induced activity compared to the wildtype mice (11,246±3213 centimeters vs. 1035±252 centimeters, FIGS. 3A and 3B).

Assay [5] deals with coloboma mutant mice (Cm/+). As to the kind of experiment: Open field test, coloboma mutant mice. Format: in vivo, mouse. As to conditions: parallel experiments.
Assay [6] has as its system coloboma mutant mice (Cm/+). As to the kind of experiment: Open field test, coloboma mutant mice. It is filed as in vivo, mouse. As to conditions: for frequency of zone crossings / total distance traveled / locomotor activity: final 30 min.
Excerpt: as §1, §2
ABPA (0.3, 3 and 30 mg/kg) and atomoxetine (0.1 mg/kg) were dissolved in saline and administered i.p. at the injection volume of 10 ml/kg. Mice were pretreated with saline, ABPA, or atomoxetine for 30 min, after which their behavior was recorded in the OF chambers for a 60-min test session. At the end of each open field test session the OF chambers were thoroughly cleaned with Clorox wipes. Mice were returned to their home cage after testing and then to the colony room. Mice were retested every week. The washout period between tests ranged from 3-7 days. Data were analyzed by analysis of variance (ANOVA), followed by Fisher PLSD post-hoc analysis when appropriate. An effect was considered significant if p<0.05. Outliers that fell above and below two standard deviations away from the mean were removed from the final analysis.
Since the effects of all drugs reached a stable response by 20-30 min following the start of the experiment, the data was analyzed in 2 time periods: 1) total 60 min test session and 2) the last 30 min of the test session. The quantified data over the final 30 min time period are presented. Repeated measure ANOVA found a significant genotype and drug interaction over both time periods. As measured by total distance traveled, the coloboma mice had roughly 6- to 10-fold higher saline-induced activity compared to the wildtype mice (11,246±3213 centimeters vs. 1035±252 centimeters, FIGS. 3A and 3B).

The test system of assay [7] is patients with mild cognitive impairment (MCI). As to the kind of experiment: Five Choice Reaction Time test (CANTAB), clinical trial. Format: in vivo, human. The settings on record: 600 mg tid. On the procedure:
(§3) A clinical trial was initiated to determine the effect of the GABAB receptor antagonist, ABPA, on specific tests of cognition in non-demented older individuals with diminished memory function who met prospective criteria for mild cognitive impairment (MCI). Patients aged 60-85 with MCI enrolled in this double-blind, randomized trial. Patients were randomized to ABPA (600 mg tid) or placebo for 8 weeks. Verbal, paper and computer tests of memory and cognition were made by trained assessors at baseline (before administration of ABPA or placebo) and after 2, 5, and 8 weeks of treatment. Among these were selected tests from the Cambridge Neuropsychological Test Automated Battery (CANTAB), a computerized battery of tests for neuropsychological evaluation (Robbins et al., 1994, “Cambridge Neuropsychological Test Automated Battery (CANTAB): A factor analytic study of a large sample of normal elderly volunteers,” Dementia 5:266-281). Tests assessing memory, attention and psychomotor speed were administered to the patient by a neuropsychologist or equivalent via a computer with a touch screen, thus testing the individual's cognitive performance rather than ability to use a computer. CANTAB tests have been proven to be highly sensitive and specific in differentiating patients with a number of neurological conditions from each other and from normal controls.
110 patients were randomized; 75 were administered ABPA and 35 were administered placebo (56% men; mean age: 74 years).
The Five Choice Reaction Time test measures the speed of response to the appearance of a visual stimulus. Patients rested their hand on a press-pad placed on the desk directly in front of the computer screen, holding down the press-pad until a brief yellow flash appeared in 1 of the 5 circles located at various positions around the screen. […] The computer recorded 2 measures of response speed: reaction time, which was the time taken to lift the hand from the press-pad, and movement time, which was the latency from press-pad release to the time that the screen was touched. […]

Assay [8] shares this test system. The experiment in a line: Rapid Visual Information Processing (RVIP) test (CANTAB), clinical trial. Format: in vivo, human. As to conditions: 600 mg tid. On the procedure: A clinical trial was initiated to determine the effect of the GABAB receptor antagonist, ABPA, on specific tests of cognition in non-demented older individuals with diminished memory function who met prospective criteria for mild cognitive impairment (MCI). Patients aged 60-85 with MCI enrolled in this double-blind, randomized trial. Patients were randomized to ABPA (600 mg tid) or placebo for 8 weeks. Verbal, paper and computer tests of memory and cognition were made by trained assessors at baseline (before administration of ABPA or placebo) and after 2, 5, and 8 weeks of treatment. Among these were selected tests from the Cambridge Neuropsychological Test Automated Battery (CANTAB), a computerized battery of tests for neuropsychological evaluation (Robbins et al., 1994, “Cambridge Neuropsychological Test Automated Battery (CANTAB): A factor analytic study of a large sample of normal elderly volunteers,” Dementia 5:266-281). […]
The Rapid Visual Information Processing (RVIP) test is a test of sustained attention with a small working memory component. […] Responses were recorded with a button press. Reaction time, or mean hit latency, for all correct responses was recorded, as were additional signal detection measures (e.g., total hits, total misses and total false alarms). […]

In a further assay the test system is patients with MCI. As to the kind of experiment: CANTAB tests of psychomotor speed, clinical trials. It is filed as in vivo, human. On the procedure:
as §3

The subject of a further assay is GABAC receptor. As to conditions: reported in U.S. Pat. No. 6,632,806; cited from earlier work.

Turning to `NCCCCC(=O)O` [5-AVA], the “dopamine release in the striatum” value in assay [1] was “increase dopamine release in the striatum”.

Turning to `COC(=O)C(c1ccccc1)C1CCCCN1` (stereo not drawn) [methylphenidate], the “performance in the RVIP test” value in [2] is reported as “improve performance in the RVIP test”. In addition, in the assay with coloboma mice (Cm/+), the “activity levels / hyperactivity of coloboma mice” value (from here on “activity levels / hyperactivity”) is “failed to normalize the hyperactivity”. In the assay on wildtype mice, the “activity levels of wildtype mice” value is “increasing locomotor activity”.

`NCC(CC(=O)O)c1ccc(Cl)cc1` (stereo not drawn) [baclofen]: in [1], the “dopamine release in the striatum” value is on record as “decrease in striatal dopamine”.

On to `CCOC(OCC)P(=O)(O)CCCN` [CGP 35348], for which the “burst firing of VTA dopamine neurons” value in [3] is “long-lasting increase in burst firing”.

On to `C[C@H](N)Cc1ccccc1` [d-amphetamine, dextro-amphetamine], for which, in [4] (parallel experiments), the “activity in control (wildtype) mice” value is reported as “did increase activity” and the “rearing frequency in control (wildtype) mice” value is recorded as “no effect on rearing frequency”. Further, the “activity in coloboma mice” value in [5] (0.5 mg/kg) was “did not reduce activity”. In assay [5] (1 mg/kg), the “activity in coloboma mice” value was “did not reduce activity”. In [5] (4 mg/kg), the “activity in coloboma mice” value is “did not reduce activity” and the frequency of rearing entry was “did reduce the frequency of rearing”. Moreover, the “activity levels / hyperactivity” value with coloboma mice (Cm/+) is “reduced”. For the same compound, in the assay on wildtype mice, the “activity levels of wildtype mice” value is listed as “profound increases in activity”.

Consider `CNCC[C@@H](Oc1ccccc1C)c1ccccc1` [atomoxetine], for which, in [6] (0.1 mg/kg i.p., p=0.06), the “frequency of zone crossings” value is “strong trend to decreasing the zone crossings”. The total distance traveled result in [6] (0.1 mg/kg i.p., final 30 min of 60-min session, vs saline-treated Cm mutants, p=0.03) was “significantly decreased total distance traveled”. Moreover, the “activity levels / hyperactivity” value in the assay with coloboma mice (Cm/+) was “reduces hyperactivity”. In addition, the “activity levels of wildtype mice” value in the assay on wildtype mice is “without affecting activity levels”.

For the compound `CCCCP(=O)(O)CCCN` [ABPA, 3-aminopropyl-(n-butyl)-phosphinic acid], in [7] (8 weeks, p=0.002 vs placebo (+9.4)), the “mean reaction time, change compared to baseline” value was −19.7 milliseconds. Also, the “reaction time vs baseline” value in [7] (Week 2, p=0.074 vs placebo) was “Decreased reaction time”; in assay [7] (Week 5, p=0.070 vs placebo) it was “Decreased reaction time”. For the same compound, the “mean hit latency, mean change from Baseline” value is -37.3 ms in assay [8] (Week 5, p=0.03 vs placebo (+15.0)) and -61.6 ms in [8] (Week 8, p=0.02 vs placebo (−5.9)). The psychomotor speed entry with patients with MCI was “significant improvements in psychomotor speed”. For the same compound, the “frequency of zone crossings” value was “significant decrease in the frequency of zone crossings” in assay [6] (0.3 mg/kg i.p., p=0.04, to within range of saline-treated wildtype); “strong trend to decreasing the zone crossings” in [6] (3 mg/kg i.p., p=0.06); “significant decrease in the frequency of zone crossings” in [6] (30 mg/kg i.p., p=0.04, to within range of saline-treated wildtype). In addition, the “total distance traveled / locomotor activity” value in assay [6] (0.3 mg/kg i.p., p=0.07) is listed as “strong trend to decreasing the activity”; in [6] (3 mg/kg i.p., p=0.03), “significantly decreased locomotor activity levels”; in [6] (30 mg/kg i.p., p=0.03) it was “significantly decreased locomotor activity levels”. Besides, the “locomotor activity of wildtype controls” value in assay [4] (3 mg/kg i.p.) and in assay [4] (30 mg/kg i.p.) was “no effect on the activity of wildtype controls” each time. The GABAC receptor antagonism entry with GABAC receptor is “antagonize”.
